Measurements from patent publication US20260356824A1, “COMPOUNDS FOR TREATING FIBROTIC DISEASES” (Meta-Immue Inc., priority 2023, published 2026).

Legend:
A2058 cells = assay: Chemotaxis Assay (LPA-induced migration of A2058 cells); assay type: cell-based; details: Homo sapiens, 4 to 8 hours, crystal violet 590 nm
Method: For monitoring the migration of cells, Neuroprobe ChemoTx® System plates ([…], 5.7 mm diameter sites; Gaithersburg, MD, USA) were utilized. To induce cell migrations, a concentration of […] or vehicle in DMEM were loaded to the bottom chamber. A total of 15,000 A2058 cells, which were starved for 24 hr following treated with test compounds or vehicle, were then applied to the upper membrane coated with 0.001% fibronectin. The plate was incubated for 4 to 8 hours to allow cell migration. Following incubation, the plate was dissembled, and the migrated cells were visualized by crystal violet staining. The stained area with crystal violet was quantified by measuring the absorbance at 590 nm and the relative percentage of the control was calculated.

hLPAR1 = target: T1, hLPAR1 (Homo sapiens, UniProt Q92633); assay: Ca2+ Flux Assay (B103 cells stably expressing hLPAR1); assay type: cell-based; details: LPA-induced calcium release, Fura-2 AM, compound 20 min at RT
T1 construct: expressed in transfected cells
T1 sequence (Q92633 whole entry): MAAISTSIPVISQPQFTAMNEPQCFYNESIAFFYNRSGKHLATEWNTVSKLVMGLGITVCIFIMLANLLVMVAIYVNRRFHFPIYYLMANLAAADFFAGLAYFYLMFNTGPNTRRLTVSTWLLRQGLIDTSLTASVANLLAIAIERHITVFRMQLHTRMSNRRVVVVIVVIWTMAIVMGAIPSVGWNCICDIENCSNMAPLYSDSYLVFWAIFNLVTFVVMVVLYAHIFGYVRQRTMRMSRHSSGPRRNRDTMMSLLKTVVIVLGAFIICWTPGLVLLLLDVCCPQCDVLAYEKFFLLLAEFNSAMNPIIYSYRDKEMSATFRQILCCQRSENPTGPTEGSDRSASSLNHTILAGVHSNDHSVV
Method: B103 cells stably expressing hLPAR1 were seeded at a density of 1.0×10^5 cells per well in clear flat-bottom black 96-well plates and incubated overnight in complete media. The following day, the cells were pre-incubated in serum-free media for 2 hours prior to ensure cellular equilibration. For the loading a calcium-sensitive fluorescent dye, the cells were treated with a concentration of 5 μM Fura-2 AM dye (Sigma, F1225) in Hank's buffered salt solution (HBSS) supplemented with 20 mM HEPES, […], and 0.3% fatty-acid-free bovine serum albumin for 40 minutes at room temperature (RT). Test compounds, prepared in DMSO, were then added to each well and incubated for 20 minutes at RT. To induce calcium release, a concentration of […] in HBSS supplemented with 20 mM HEPES, and 0.3% fatty-acid-free bovine serum albumin was introduced. Intracellular calcium mobilization was subsequently quantified by monitoring the fluorescence intensity using the Spark® multimode microplate reader (TECAN).

BSEP = target: T2, BSEP (Homo sapiens, UniProt O95342); assay: Bile Salt Export Pump (BSEP) Assay, Sf9 insect cell vesicles expressing BSEP; assay type: in vitro ADME; details: 10 μM test compound, probe substrate 1 μM [3H]-taurocholic acid, 15 min incubation
T2 construct: ATP-dependent uptake of radiolabelled probe substrate
T2 sequence (O95342 whole entry): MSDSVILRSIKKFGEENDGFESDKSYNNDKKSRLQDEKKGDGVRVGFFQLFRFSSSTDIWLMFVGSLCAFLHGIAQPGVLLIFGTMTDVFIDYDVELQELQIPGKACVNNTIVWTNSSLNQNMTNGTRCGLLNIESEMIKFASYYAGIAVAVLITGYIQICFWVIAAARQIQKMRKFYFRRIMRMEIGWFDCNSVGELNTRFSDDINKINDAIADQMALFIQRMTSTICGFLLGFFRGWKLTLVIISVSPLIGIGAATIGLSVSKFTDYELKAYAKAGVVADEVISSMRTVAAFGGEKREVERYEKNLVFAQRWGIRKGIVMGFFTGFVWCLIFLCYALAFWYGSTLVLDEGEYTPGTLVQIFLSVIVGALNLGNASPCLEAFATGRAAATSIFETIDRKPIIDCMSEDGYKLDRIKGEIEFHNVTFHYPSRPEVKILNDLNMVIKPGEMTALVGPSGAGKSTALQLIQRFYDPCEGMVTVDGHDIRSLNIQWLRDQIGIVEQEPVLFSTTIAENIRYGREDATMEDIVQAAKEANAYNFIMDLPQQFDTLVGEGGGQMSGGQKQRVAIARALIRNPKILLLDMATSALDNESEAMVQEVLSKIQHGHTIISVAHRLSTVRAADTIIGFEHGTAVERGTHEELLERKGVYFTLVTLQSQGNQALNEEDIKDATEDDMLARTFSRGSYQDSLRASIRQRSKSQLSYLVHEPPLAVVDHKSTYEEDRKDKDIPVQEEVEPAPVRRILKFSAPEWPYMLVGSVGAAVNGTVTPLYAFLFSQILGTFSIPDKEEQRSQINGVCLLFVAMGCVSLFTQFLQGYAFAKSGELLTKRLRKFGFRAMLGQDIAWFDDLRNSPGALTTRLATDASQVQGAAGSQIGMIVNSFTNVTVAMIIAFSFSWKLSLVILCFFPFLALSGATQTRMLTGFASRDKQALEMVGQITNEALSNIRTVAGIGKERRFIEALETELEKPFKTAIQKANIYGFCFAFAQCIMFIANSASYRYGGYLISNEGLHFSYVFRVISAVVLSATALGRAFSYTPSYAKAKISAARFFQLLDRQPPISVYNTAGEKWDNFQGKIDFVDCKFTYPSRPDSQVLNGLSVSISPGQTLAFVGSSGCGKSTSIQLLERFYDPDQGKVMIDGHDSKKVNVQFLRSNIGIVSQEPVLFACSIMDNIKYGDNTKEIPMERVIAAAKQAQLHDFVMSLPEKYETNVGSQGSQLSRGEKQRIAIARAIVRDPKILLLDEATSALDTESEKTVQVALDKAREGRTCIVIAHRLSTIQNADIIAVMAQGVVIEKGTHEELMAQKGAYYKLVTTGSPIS
Method: • 1. A stock solution was prepared with the test article (Sponsor compound) in DMSO. • 2. All final assay solutions of probe substrate, reference inhibitor or test article contain 0.5% (v/v) DMSO (vehicle control). • 3. Test article concentrations in transport study were specified in the Summary Table of Experimental Conditions of this protocol.
• 1. Bovine Serum Albumin (BSA) • 2. Dimethyl sulfoxide (DMSO) • 3. BSEP Assay Uptake Buffer (10 mM HEPES-Tris pH 7.4, 0.1 M KNO3, 12.5 mM Mg(NO3)2, 50 mM sucrose) • 4. BSEP Wash Buffer (10 mM Tris-HCl pH 7.4, 0.1 M KNO3, 50 mM sucrose) • 5. BSEP Blocking Buffer (BSEP Wash Buffer+0.5 mg/mL BSA) • 6. 25 mM Mg-ATP solution • 7. 25 mM AMP solution • 8. Corning Costar 96-well flat-bottom, untreated, white Assay Plate (Corning Cat. No. 3912) • 9. Millipore MultiscreenHTs Filtration Plate, glass fiber FB—1.0/0.65 μm (Cat. No. MSFBN6B10 or glass fiber FC—1.2/0.65 μm (Cat. No. MSFCN6B10) • 10. Millipore MultiscreenHTS Vacuum Manifold (Cat. No. MSVMHTS00) • 11. Probe substrates listed in Table 1 • 12. Reference inhibitors listed in Table 1 • 13. Test articles
• 1. Test system: • a. 96-well flat bottom plate containing a suspension of vesicles and a corresponding 96-well glass fiber filtration plate. • b. Transport experiments were conducted in the Assay Uptake Buffer. • c. Transport experiment was initiated with the addition of Mg-ATP or AMP to appropriate wells. • d. Each condition was run in triplicate wells. • 2. Prepared the 96-well flat-bottom assay plate. • a. Incubated the assay plate with the Blocking Buffer for 60 min at 37 °C with orbital shaking at approximately 90 rpm. (NOTE: This is done to prevent non-specific binding of vesicles to polystyrene assay plate). • b. After 60 min, completely removed the Blocking Buffer from the assay plate. • c. The Assay Uptake Buffer solutions were added to the assay plate wells as follows: • i. For probe substrate transport assays, the Assay Uptake Buffer contained vesicles and the probe substrate at the specified concentration. • ii. For the reference inhibition assay, the Assay Uptake Buffer contained vesicles, the reference inhibitor and the probe substrate at the specified concentration in Table 1. • iii. For the test article assays, Assay Uptake Buffer contained vesicles, the test article and the probe substrate at the specified concentration in Table 1. • 3. Incubate at 37 °C with orbital shaking at approximately 90 rpm for the time period specified in Table 1 of this protocol. • 4. Using the 25 mM Mg-ATP or AMP stocks, Mg-ATP or AMP was added to test wells of flat bottom assay plate to a final concentration of 5 mM. • 5. Incubated at 37 °C with orbital shaking at approximately 90 rpm for the incubation time specified in Table 1 of this protocol. • 6. Prepared the 96-well glass fiber filtration plate: • a. Incubated the filtration plate with the Blocking Buffer for 2 min at room temperature with under no vacuum. • b. Turned on vacuum and allowed Blocking Buffer to filter through plate. • c. With vacuum on, filter plate was washed with ice cold Wash Buffer. • 7. At the end of the specified incubation time indicated in […] of this protocol, vesicle transport was quenched by adding ice cold Wash Buffer to samples in 96-well assay plate. • 8. Mixed assay samples (now diluted in Wash Buffer) with pipette and transfered 175 μL into the 96-well glass fiber filtration plate to separate vesicles from buffer by applying vacuum. • 9. Washed filter plate wells with ice cold Wash Buffer. • 10. Allowed filter plate to dry under vacuum. • 11. Transfered filters to scintillation sample plate and added 700 μL of scintillation fluid to the above samples. • 12. Counted the above samples on a 1450 Microbeta (Perkin-Elmer).
• 1. The amount of substrate was quantified with radiometric detection on a 1450 Microbeta (Perkin-Elmer). • 2. For transport study samples run in triplicate, the mean and standard deviation of the replicates were reported. • 3. […]

`Cc1nsc(C2CCN(c3ccc(C4(C(=O)O)CC4)cc3)CC2)c1NC(=O)O[C@H](C)c1ccccc1` [Compound 95] showed an IC50 (A2058 cells) of 100 to 500 nM, an IC50 (hLPAR1) of 10 to 200 nM and an inhibition at 0.25 h, 10 µM (BSEP) of 25 to 50%.

With `Cc1noc(C2CCN(c3ccc(C4(C(=O)NS(=O)(=O)CC(C)(C)C(=O)O)CC4)cc3)CC2)c1NC(=O)O[C@H](C)c1ccccc1` [Compound 78, (R)-2,2-dimethyl-3-(N-(1-(4-(4-(3-methyl-4-(((1-phenylethoxy)carbonyl)amino)isoxazol-5-yl)piperidin-1-yl)phenyl)cyclopropane-1-carbonyl)sulfamoyl)propanoic acid] the IC50 (A2058 cells) was < 100 nM, the IC50 (hLPAR1) was < 10 nM and the inhibition at 0.25 h, 10 µM (BSEP) was 25 to 50%.

`C[C@@H](OC(=O)Nc1cc(Cl)sc1C1CCN(c2ccc(C3(C(=O)O)CC3)cc2)CC1)c1ccccc1` [Compound 92, 1-(4-{4-[5-chloro-3-({[(1R)-1-phenylethoxy]carbonyl}amino)thiophen-2-yl]piperidin-1-yl}phenyl)cyclopropane-1-carboxylic acid] was tested, and the IC50 (A2058 cells) was < 100 nM, the IC50 (hLPAR1) was 10 to 200 nM and the inhibition at 0.25 h, 10 µM (BSEP) was 75 to 100%.

With `C[C@@H](OC(=O)Nc1c(C2CCN(c3ccc(C4(C(=O)O)CC4)cc3)CC2)cnn1C)c1ccccc1` [Compound 55] the IC50 (A2058 cells) was 100 to 500 nM, the IC50 (hLPAR1) was 10 to 200 nM and the inhibition at 0.25 h, 10 µM (BSEP) was 25 to 50%.

With `Cc1ccccc1[C@@H](C)OC(=O)Nc1c(C)noc1C1CC2(C1)CN(c1ccc(C3(C(=O)O)CC3)cc1)C2` [Compound 33, 1-(4-{6-[3-methyl-4-({[(1R)-1-(2-methylphenyl)ethoxy]carbonyl}amino)-1,2-oxazol-5-yl]-2-azaspiro[3.3]heptan-2-yl}phenyl)cyclopropane-1-carboxylic acid] the IC50 (A2058 cells) was < 100 nM, the IC50 (hLPAR1) was < 10 nM and the inhibition at 0.25 h, 10 µM (BSEP) was 75 to 100%.

With `COc1ccc(C2CCN(c3ccc(C4(C(=O)O)CC4)cc3)CC2)c(NC(=O)O[C@H](C)c2ccccc2)c1` [Compound 19, (R)-1-(4-(4-(4-methoxy-2-(((1-phenylethoxy)carbonyl)amino)phenyl)piperidin-1-yl)phenyl)cyclopropane-1-carboxylic acid] the IC50 (A2058 cells) was < 100 nM, the IC50 (hLPAR1) was < 10 nM and the inhibition at 0.25 h, 10 µM (BSEP) was 50 to 75%.

In the case of `COc1cc(C2(C(=O)NS(=O)(=O)CCC(=O)O)CC2)ccc1N1CCC(c2onc(C)c2NC(=O)O[C@H](C)c2ccccc2)CC1` [Compound 1, 3-[[1-[3-methoxy-4-[4-[3-methyl-4-[[(1R)-1-phenylethoxy]carbonylamino]isoxazol-5-yl]-1-piperidyl]phenyl]cyclopropanecarbonyl]sulfamoyl]propanoic acid], the IC50 (A2058 cells) is reported as < 100 nM and the IC50 (hLPAR1) is reported as < 10 nM.

For `Cc1noc(C2CCN(c3ccc(C4(C(=O)NS(=O)(=O)C5(C(=O)O)CC5)CC4)cc3)CC2)c1NC(=O)O[C@H](C)c1ccccc1` [Compound 75], the IC50 (A2058 cells) was < 100 nM and the IC50 (hLPAR1) was < 10 nM.

With `C[C@@H](OC(=O)Nc1c(C2CCN(c3ccc(C4(C(=O)O)CC4)cc3)CC2)nnn1C)C1CCCCC1` [Compound 26, (R)-1-(4-(4-(5-(((1-cyclohexylethoxy)carbonyl)amino)-1-methyl-1H-1,2,3-triazol-4-yl)piperidin-1-yl)phenyl)cyclopropane-1-carboxylic acid] the IC50 (A2058 cells) was 500 to 5000 nM and the IC50 (hLPAR1) was < 10 nM.

`Cc1noc(C2CCN(c3ccc(C4(C(=O)NS(=O)(=O)C5(CC(=O)O)CC5)CC4)cc3)CC2)c1NC(=O)O[C@H](C)c1ccccc1` [Compound 76] was tested, and the IC50 (A2058 cells) was 100 to 500 nM and the IC50 (hLPAR1) was < 10 nM.

Work on `Cc1noc(C2CCN(c3ccc(C4(C(=O)O)CC4)cc3)CC2)c1NC(=O)N[C@H](C)c1ccccc1` [Compound 16] yielded an IC50 (A2058 cells) of 500 to 5000 nM and an IC50 (hLPAR1) of 10 to 200 nM.

`Cc1noc(C2CCN(c3ccc(C4(C(=O)OCc5oc(=O)oc5C)CC4)cc3)CC2)c1NC(=O)O[C@H](C)c1ccccc1` [Compound 14] was tested, and the IC50 (A2058 cells) was < 100 nM and the IC50 (hLPAR1) was < 10 nM.

`C[C@@H](OC(=O)Nc1c(C2CCN(c3ccc(C4(C(=O)NS(=O)(=O)C(C)(C)C(=O)O)CC4)cc3)CC2)nnn1C)c1ccccc1` [Compound 56] was tested, and the IC50 (A2058 cells) was 100 to 500 nM and the IC50 (hLPAR1) was < 10 nM.

With `Cc1noc(C2CCN(c3ccc(C4(C(=O)NS(=O)(=O)CC5(C(=O)O)CC5)CC4)cc3)CC2)c1NC(=O)O[C@H](C)c1ccccc1` [Compound 82, 1-[({[1-(4-{4-[3-methyl-4-({[(1R)-1-phenylethoxy]carbonyl}amino)-1,2-oxazol-5-yl]piperidin-1-yl}phenyl)cyclopropyl]formamido}sulfonyl)methyl]cyclopropane-1-carboxylic acid] the IC50 (A2058 cells) was < 100 nM and the IC50 (hLPAR1) was < 10 nM.

With `Cc1noc(C2CCN(c3ccc(C4(C(=O)O)CC4)cc3)CC2)c1NC(=O)OC1C2C[C@H]3C[C@@H](C2)C[C@@H]1C3` (some centres unmarked) [Compound 97] the IC50 (A2058 cells) was 500 to 5000 nM and the IC50 (hLPAR1) was 200 to 3000 nM.

With `COc1cc(C2(C(=O)O)CC2)ccc1N1CC2(CC(c3onc(C)c3NC(=O)O[C@H](C)c3ccccc3)C2)C1` [Compound 46, 1-(3-methoxy-4-{6-[3-methyl-4-({[(1R)-1-phenylethoxy]carbonyl}amino)-1,2-oxazol-5-yl]-2-azaspiro[3.3]heptan-2-yl}phenyl)cyclopropane-1-carboxylic acid] the IC50 (A2058 cells) was 500 to 5000 nM and the IC50 (hLPAR1) was < 10 nM.

In the case of `C[C@@H](OC(=O)Nc1c(C2CCN(c3ccc(C4(C(=O)NS(=O)(=O)C5(C(=O)O)CC5)CC4)cc3)CC2)nnn1C)c1ccccc1` [Compound 57, 1-[[1-[4-[4-[1-methyl-5-[[(1R)-1-phenylethoxy]carbonylamino]triazol-4-yl]-1-piperidyl]phenyl]cyclopropanecarbonyl]sulfamoyl]cyclopropanecarboxylic acid], the IC50 (A2058 cells) is reported as < 100 nM and the IC50 (hLPAR1) is reported as < 10 nM.

`Cc1noc(C2CCN(c3ccc(C4(C(=O)NS(C)(=O)=O)CC4)cc3)CC2)c1NC(=O)O[C@H](C)c1ccccc1Cl` [Compound 11] gave an IC50 (A2058 cells) of 100 to 500 nM and an IC50 (hLPAR1) of 10 to 200 nM.

With `Cc1nsc(C2CCN(c3ccc(C4(C(=O)O)CC4)cc3)CC2)c1NC(=O)O[C@H](C)c1ccccc1Cl` [Compound 42] the IC50 (A2058 cells) was < 100 nM and the IC50 (hLPAR1) was 10 to 200 nM.
